Assay results taken from a melting point compilation (Tetko et al.; mined from patent text by program, amines drawn as free bases though some values may be those of a salt).

melting point | SMILES
144 to 146 °C | CCOC(=O)c1cccc(NC(=O)c2ccc(OC)c(N)c2)c1
66 to 68 °C | CC1(C)Cc2ccccc2CC(C)(C)C1O
296 to 297 °C | COc1cc(C=C2NC(=O)NC2=O)cc(OC)c1O
81 to 83 °C | CCCCCCCCCCOc1ccc(C(=O)C=O)cc1
171 to 173 °C | CCOc1ccc(C(=O)N2CCc3nnc(NN)cc3C2)cc1
124 °C | N#Cc1cc([N+](=O)[O-])ccc1N1CCN(Cc2ccccc2)CC1
204 °C | NS(=O)(=O)c1ccc(N2CN(c3ccccc3)CC2=O)c(Cl)c1
219 to 221 °C | CCCCc1nc2c(N)nc3ccccc3c2n1CCCCC(N)=O
211 °C | Cc1cc(C#N)cc(C(=O)Nc2nc(C)cs2)n1
100 °C | CCc1cc(F)cc2c1OCC(C)(C)CC2(O)c1ccccn1 (stereo not drawn)
104 to 106 °C | CCC[C@@](CCc1ccccc1)(CC(=O)OCOc1ccc(-c2ccccc2)cc1)OCOc1ccc(-c2ccccc2)cc1
192 to 193 °C | O=C(O)C(O)=Cc1ccc([N+](=O)[O-])s1
104 to 106 °C | COC(=O)C(Oc1cc(OCc2ccsc2)ccc1C#N)c1ccccc1F (racemic)
118 to 119 °C | COc1cc(CC(C)(C)NC(=O)c2ccc(Cl)nc2)cc2c1OC(C)(C)C2
87 °C | C[C@@H](O)[C@H](NC(=O)OC(C)(C)C)C(=O)NOCc1ccccc1
94 to 95 °C | COc1ccc(C(=O)Cc2cccc(C(F)(F)F)c2)cc1
101 to 102 °C | OCc1cnoc1-c1ccc(Cl)c(Cl)c1
89 to 93 °C | CC(Cc1c[nH]c2ccccc12)(NC(=O)OCC1c2ccccc2-c2ccccc21)C(=O)NC(CO)Cc1ccccc1 (stereo not drawn)
138 to 139 °C | CC(=O)C1=C(C)NC(C)=C(c2nc(CN(C)Cc3ccccc3)no2)C1c1cccc([N+](=O)[O-])c1 (stereo not drawn)
140 to 142 °C | Cc1cc(Cl)ccc1NS(=O)(=O)c1cc(S(=O)(=O)Nc2ccc(Cl)cc2C)c2cc(O)ccc2c1
> 250 °C | O=C1Cn2nc(-c3ccc(F)cc3)c(-c3ccncc3)c2N1
155 to 156 °C | CCc1cc(CCc2nc3ccccc3o2)c(=O)[nH]c1CO

melting point | SMILES
177 °C | O=C(Nc1ccccc1S(=O)(=O)F)NC1CCCCC1
74 to 75 °C | O=[N+]([O-])c1ccc(C=C(Cl)Cl)o1
164 °C | O=S(=O)(c1ccccc1)c1cnc2c(N3CCNCC3)cccc2c1
196 to 201 °C | Cc1c(NC(=O)c2cccnc2NCc2ccc(=O)[nH]c2)cccc1C(F)(F)F
118 to 121 °C | O=C(O)c1c2c(nc3ccc(F)cc13)-c1ccc(C3CCCCC3)cc1CC2
44 to 46 °C | CN(C(=O)Cl)c1ccccc1C(F)(F)F
90 to 91 °C | CCOP(=O)(NN=C(c1ccc(Cl)cc1)c1ccc(OS(C)(=O)=O)cc1)OCC
191 to 192 °C | N#CNC(=NC1CCN(Cc2ccccc2)CC1)N1Cc2ccccc2C1
86 to 88 °C | CCCCCS(=O)(=O)NC(=O)/C=C/c1ccc(OCC(O)COC(C)C)cc1Oc1ncc(C(F)(F)F)cc1Cl (stereo not drawn)
203 to 204 °C | CCCOc1ccc(S(=O)(=O)N2CCC(C(=O)OCC)CC2)cc1-c1nc2cc(Cl)c([N+](=O)[O-])cc2c(=O)[nH]1
131 to 133 °C | CCCN(CCC)C(=O)c1cc(C(=O)O)cc(-c2ncco2)c1
170 to 173 °C | CC(=O)CC(=O)Nc1c(C(=O)c2ccccc2)[nH]c2cc(Cl)ccc12
122 to 124 °C | Clc1ccc(CN2CC=C(/C=C/c3ccc4c(c3)OCO4)CC2)cc1
150 to 152 °C | CCN(CC)CCOC(=O)CCc1cc(S(C)(=O)=O)cc(-c2nc(=O)c3ccc(Cl)cc3s2)n1
106 °C | COc1cc(/C=C/C(=O)CC(=O)Cc2ccccc2)ccc1O
209 to 210 °C | CC(C)(C)[N+]([O-])=Cc1c[nH]c(-c2ccccc2)n1
250 to 251 °C | O=C(Nc1c[nH]nc1C(=O)NCCc1c[nH]c2ccccc12)c1ccccn1
192 °C | O=c1c2cncc3cccc(c32)n2c([N+](=O)[O-])ccc12
87 to 90 °C | O=C(COc1cc(F)ccc1C(=O)NCc1cccc([N+](=O)[O-])c1)OC1CCCCC1
130 °C | Nc1ccc(N2CCN(Cc3ncc(-c4ccccc4)o3)CC2)cc1
132 to 134 °C | O=C(O)Cc1ccc2c(c1)C(O)c1ccccc1CO2 (stereo not drawn)
203 to 204 °C | CC1(O/N=C(\C(=O)O)c2csc(N)n2)CCCCC1

melting point | SMILES
107 to 109 °C | CCOC(=O)C1=C(C)NC(=S)N(C(=O)OCC)C1c1cccc(OC)c1 (stereo not drawn)
191 to 192 °C | Nc1c(Cl)cc(C(O)CNCCCCCCOCCCc2cncc(CC(=O)O)c2)cc1Cl (stereo not drawn)
300 °C | COc1ccc(-c2c(Cl)c(CN3C(=O)CCC3=O)nc3sc4c(c23)CCS(=O)(=O)C4)cc1
85 °C | CCOc1cc(C2(C)CNC(=O)O2)ccc1OC (stereo not drawn)
147 to 148 °C | S=C(NCCC1=CCCCC1)Nc1nccs1
113 °C | CNC(=S)NC1CCCc2cc(C)cnc21 (stereo not drawn)
> 250 °C | Cc1c(C)n2nnnc2c2nc(C)n(CCNC(=O)OC(C)(C)C)c12
72 to 73 °C | O=Cc1cc([N+](=O)[O-])ccc1OCCCc1ccccc1
223 to 224 °C | CC(=O)NCC1CN(c2ccc(N3CCN(c4nc5ccccc5o4)CC3)c(F)c2)C(=O)O1 (stereo not drawn)
288 to 290 °C | Cc1[nH]c(=S)[nH]c1-c1cc(C(C)(C)C)c(O)c(C(C)(C)C)c1
231 to 234 °C | CC(C)(CO)Nc1nc(SCc2cccc(F)c2F)nc2nc(N)sc12
133 to 135 °C | CS(=O)(=O)Nc1ccc(C#N)cc1C(O)c1ccc(F)cc1F (stereo not drawn)
224 °C | CC(C)CC(CS)C(=O)N[C@H]1Cc2cn(c3ccccc23)CCCCCCNC1=O (stereo partly drawn)
161 to 163 °C | CCCC(C)(Oc1ccccc1C)C(=O)OC1CC(O)C=C2C=CC(C)C(CCC3CC(O)CC(=O)O3)C21 (mixture of isomers)
85 to 91 °C | O=C(N1c2ccccc2C=Cc2ccccc21)C(F)(F)F
216 to 218 °C | O=C(Cl)c1ccc2c(c1)C(C(F)(F)F)(C(F)(F)F)c1cc(C(=O)Cl)ccc1O2
130 °C | C[C@]12C[C@H](c3ccc(OCCCCCS(=O)(=O)CCCc4c(F)c(F)c(F)c(F)c4F)cc3)[C@@H]3c4ccc(O)cc4CC[C@H]3[C@@H]1CC[C@@H]2O
66 °C | O=[N+]([O-])c1cc([C@@H]2CO2)ccc1OCc1ccccc1
172 to 173 °C | CC(C)(C)c1cc(O)cc(C(C)(C)C)c1S(=O)c1nnc(-c2ccccn2)o1 (stereo not drawn)
107 to 108 °C | COc1cccc(OCCCN2CCC(C(O)(c3ccc(F)cc3)c3ccc(F)cc3)CC2)c1
249 to 251 °C | CCCS(=O)(=O)Nc1ccc(Sc2c(O)c3c(=O)n(-c4ccccc4)c4ccccc4c3oc2=O)cc1
91 to 93 °C | C[C@@H]1CN(C(=O)OC(C)(C)C)C[C@H]2Cc3cc(F)c(CO)nc3N21

SMILES | melting point
CCCCc1c2c(nc3cc(F)ccc13)-c1cc3c(c(=O)n1C2)COC(=O)CC3(O)CC (stereo not drawn) | 235 to 236 °C
O=C(Nc1cccc(O)c1)NC1N=C(c2ccccc2F)c2ccccc2N(CC(=O)N2CC3CCC(CC3)C2)C1=O (racemic) | 184 to 185 °C
